This note sets out measurements from US12559504B2, “Benzotriazole derivative” (UBE CORPORATION, priority 2019, dated 2026).

A value given as a limit tells only on which side of the number the result lay.

Series [1] has as its system NQO1. The series can be described thus: NQO1 expression induction test in mouse kidney (single administration). The series is classed as in vivo. Particulars: Mus musculus, po, 6 h, BALB/c mouse kidney, 6 hours after administration, ratio to control group. A digest of the protocol:
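Female BALB/c mice received a single oral dose of compound in 0.5% methylcellulose, with untreated mice as controls. Six hours later, left-kidney NQO1 mRNA was measured by SYBR real-time RT-PCR normalised to GAPDH. Induction was expressed as the ratio of mean treated to mean control expression.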

Series [2] is described as follows: Metabolism test using human liver microsome fractions. It is filed as in vitro ADME. As to conditions: human liver microsomes, test compound 10 μmol/L, NADPH and UDP-glucuronic acid, 37° C. A digest of the protocol:
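Human or monkey liver microsomes (1 mg protein) with NADPH-regenerating system plus UDP-glucuronic acid/UGT mix, 37 °C; compound at 10 μmol/L final. Samples at 0–30 min quenched in acetonitrile, UV-HPLC; elimination rate (pmol/min/mg-P) from linear slope of residual amount over time.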

The test system of series [3] is NQO1. The series can be described thus: NQO1 enzyme induction test (in vitro) in Hepa1c1c7 cells. The series is classed as cell-based. Particulars: Mus musculus, Hepa-1c1c7, 48 h, concentration to elevate the NQO1 activity by 1.5 times, about 48 hours, read-out: EC150. A digest of the protocol:
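Mouse Hepa1c1c7 cells treated about 48 h with compound (0.1% DMSO final), then lysed. NQO1 activity read as MTT reduction at 540 nm with menadione substrate, 5 min at room temperature, and corrected for cell number by CellTiter-Glo. EC150 is the concentration raising NQO1 activity 1.5-fold.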

Series [4] addresses T1, GST fusion human Keap1 (amino acid residue: 325-624) protein (Homo sapiens, UniProt Q14145).
T1 construct: GST fusion human Keap1 (amino acid residue: 325-624) protein; purchased Protein tech Ag0779
Nature of the series: Keap1-Nrf2 binding inhibition test (fluorescence polarization). As to conditions: compound concentration of 100 nM; read-out: inhibition rate. A digest of the protocol: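 Fluorescence polarization with FITC-labelled Nrf2 peptide (FITC-Ahx-LDEETGEFL-NH2) and GST-human Keap1 (325-624) in 20 mM Tris pH 7.5, 150 mM NaCl, 0.05% Tween 20, 5 mM DTT, BSA; 30 min at room temperature, ex 482/em 530 nm. Percent inhibition at 100 nM compound, Keap1-free wells = 100%.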
On the technique in general: Fluorescence polarisation rises when a labelled molecule tumbles more slowly, as on binding a larger partner.

T1 sequence (Q14145 325-624): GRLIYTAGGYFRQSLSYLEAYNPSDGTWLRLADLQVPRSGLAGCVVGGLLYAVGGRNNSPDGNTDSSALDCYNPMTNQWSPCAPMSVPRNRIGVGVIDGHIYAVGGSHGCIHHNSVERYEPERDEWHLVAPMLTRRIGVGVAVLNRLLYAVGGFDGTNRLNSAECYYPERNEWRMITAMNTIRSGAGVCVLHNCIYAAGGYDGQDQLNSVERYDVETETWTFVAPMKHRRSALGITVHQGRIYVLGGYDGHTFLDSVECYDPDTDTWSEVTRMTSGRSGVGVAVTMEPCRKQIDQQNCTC

As for `CC[C@@H]1CN(Cc2cc(C(c3ccc4c(nnn4C)c3C)C(C)(C)C(=O)O)ccc2OC)Cc2cc3ncccc3cc2O1` (stereo partly drawn) [Example 81-(b), 3-(1,4-dimethyl-1H-benzo[d][1,2,3]triazol-5-yl)-3-(3-(((R)-2-ethyl-2,3-dihydro-[1,4]oxazepino[7,6-g]quinolin-4 (5H)-yl)methyl)-4-methoxyphenyl)-2,2-dimethylpropanoic Acid], in series [1], the fold induction at 20 mg/kg fell in the range of 3 to 6. Further, in series [2], the Human metabolic rate entry is given as “A (metabolic rate<100 pmol/min/mg protein)”. Also, in series [3], the EC (1.5-fold NQO1 activity) was 0.005 to 0.05 µM. Besides, in series [4], the inhibition at 0.1 µM was at least 50%.

As to `CC[C@@H]1CN(Cc2cc(C(c3ccc4c(nnn4C)c3C)C(C)(C)C(=O)O)ccc2C)Cc2cc3cn(C)nc3cc2O1` (stereo partly drawn) [Example 51-(b), 3-(1,4-dimethyl-1H-benzo[d][1,2,3]triazol-5-yl)-3-(3-(((R)-8-ethyl-2-methyl-2,5,7,8-tetrahydro-6H-[1,4]oxazepino[6,7-f]indazol-6-yl)methyl)-4-methylphenyl)-2,2-dimethylpropanoic Acid], the fold induction at 30 mg/kg in series [1] is above 6. For the same compound, the Human metabolic rate entry in series [2] is on record as “B (100≤metabolic rate<150 pmol/min/mg protein)”. Besides, the EC (1.5-fold NQO1 activity) in series [3] fell in the range of 0.0005 to 0.005 µM. In addition, in series [4], the inhibition at 0.1 µM is at least 50%.

Take `CC[C@@H]1CN(Cc2cc(C(c3ccc4c(nnn4C)c3C)C(C)(C)C(=O)O)ccc2C)Cc2cc3nccc(Cl)c3cc2O1` (stereo partly drawn) [Example 69, 3-(3-(((R)-10-chloro-2-ethyl-2,3-dihydro-[1,4]oxazepino[7,6-g]quinolin-4 (5H)-yl)methyl)-4-methylphenyl)-3-(1,4-dimethyl-1H-benzo[d][1,2, 3]triazol-5-yl)-2,2-dimethylpropanoic Acid]: the fold induction at 20 mg/kg in series [1] lay within 3 to 6. For the same compound, in series [2], the Human metabolic rate entry is “D (200≤metabolic rate<250 pmol/min/me protein)”. The EC (1.5-fold NQO1 activity) in series [3] is below 0.0005 µM. Also, the inhibition at 0.1 µM in series [4] is at least 50%.

As to `CC[C@@H]1CN(Cc2cc(C(c3ccc4c(nnn4C)c3C)C(C)(C)C(=O)O)ccc2C)Cc2cc3ccccc3nc2O1` (stereo partly drawn) [Example 9-(b), 3-(1,4-dimethyl-1H-benzo[d][1,2,3]triazol-5-yl)-3-(3-(((R)-2-ethyl-2,3-dihydro-[1,4]oxazepino[7,6-b]quinolin-4 (5H)-yl)methyl)-4-methylphenyl)-2,2-dimethylpropanoic Acid], the fold induction at 30 mg/kg in series [1] was in the range of 3 to 6. Further, the Human metabolic rate entry in series [2] was “D (200≤metabolic rate<250 pmol/min/me protein)”. Further, the EC (1.5-fold NQO1 activity) in series [3] is 0.0005 to 0.005 µM. In addition, the inhibition at 0.1 µM in series [4] was at least 50%.

Take `CC[C@@H]1CN(Cc2cccc(C(c3ccc4c(nnn4C)c3C)C(C)(C)C(=O)O)c2)Cc2cc3ncccc3cc2O1` (stereo partly drawn) [Example 79-(b), 3-(1,4-dimethyl-1H-benzo[d][1,2,3]triazol-5-yl)-3-(3-(((R)-2-ethyl-2,3-dihydro-[1,4]oxazepino[7,6-g]quinolin-4(5H)-yl)methyl)phenyl)-2,2-dimethylpropanoic Acid]: the fold induction at 20 mg/kg in series [1] lay in the range of 3 to 6. Moreover, the Human metabolic rate result in series [2] is “E (metabolic rate≥250 pmol/min/mg protein)”. In addition, the EC (1.5-fold NQO1 activity) in series [3] lay in the range of 0.005 to 0.05 µM. In series [4], the inhibition at 0.1 µM is at least 50%.

`CC[C@@H]1CN(Cc2cc(C(c3ccc4c(nnn4C)c3C)C(C)(C)C(=O)O)ccc2C)Cc2c(ccc3cn(C)nc23)O1` (stereo partly drawn) [Example 22-(b), 3-(1,4-dimethyl-1H-benzo[d][1,2, 3)triazol-5-yl)-3-(3-(((R)-7-ethyl-2-methyl-2,7,8,10-tetrahydro-9H-(1,4]oxazepino[7,6-g]indazol-9-yl)methyl)-4-methylphenyl)-2,2-dimethylpropanoic Acid]: the fold induction at 30 mg/kg in series [1] is above 6. Further, the Human metabolic rate entry in series [2] was “B (100≤metabolic rate<150 pmol/min/mg protein)”. Besides, in series [3], the EC (1.5-fold NQO1 activity) was 0.0005 to 0.005 µM. The inhibition at 0.1 µM in series [4] was at least 50%.

Regarding `CC[C@@H]1CN(Cc2cc(C(c3ccc4c(nnn4C)c3C)C(C)(C)C(=O)O)ccc2C)Cc2c(cnc3ccccc23)O1` (stereo partly drawn) [Example 19-(b), 3-(1,4-dimethyl-1H-benzo[d][1,2,3]triazol-5-yl)-3-(3-(((R)-4-ethyl-3,4-dihydro-[1,4]oxazepino[7,6-c]quinolin-2(1H)-yl)methyl)-4-methylphenyl)-2,2-dimethylpropanoic Acid], the fold induction at 30 mg/kg in series [1] is at most 3. Further, the Human metabolic rate result in series [2] was “E (metabolic rate≥250 pmol/min/mg protein)”. Besides, the EC (1.5-fold NQO1 activity) in series [3] was in the range of 0.0005 to 0.005 µM. Also, in series [4], the inhibition at 0.1 µM is at least 50%.

With `CC[C@@H]1CN(Cc2cc(C(c3ccc4c(nnn4C)c3C)C(C)(C)C(=O)O)ccc2C)Cc2cc3ccncc3cc2O1` (stereo partly drawn) [Example 52-(b), 3-(1,4-dimethyl-1H-benzo[d][1,2, 3]triazol-5-yl)-3-(3-(((R)-2-ethyl-2,3-dihydro-[1,4]oxazepino[6,7-g]isoquinolin-4 (5H)-yl)methyl)-4-methylphenyl)-2,2-dimethylpropanoic Acid], the fold induction at 30 mg/kg in series [1] was above 6. In addition, the Human metabolic rate result in series [2] is given as “C (150≤metabolic rate<200 pmol/min/mg protein)”. Moreover, in series [3], the EC (1.5-fold NQO1 activity) was in the range of 0.0005 to 0.005 µM. For the same compound, the inhibition at 0.1 µM in series [4] was at least 50%.

For the compound `CC[C@@H]1CN(Cc2cc(C(c3ccc4c(nnn4CC)c3C)C(C)(C)C(=O)O)ccc2C)Cc2cc3ncccc3cc2O1` (stereo partly drawn) [Example 59-(b), 3-(3-(((R)-2-ethyl-2,3-dihydro-[1,4]oxazepino[7,6-g]quinolin-4(5H)-yl)methyl)-4-methylphenyl)-3-(1-ethyl-4-methyl-1H-benzo[d][1,2,3]triazol-5-yl)-2,2-dimethylpropanoic Acid], the fold induction at 30 mg/kg in series [1] was above 6. Besides, the Human metabolic rate result in series [2] was “D (200≤metabolic rate<250 pmol/min/me protein)”. Also, in series [3], the EC (1.5-fold NQO1 activity) lay within 0.0005 to 0.005 µM. Further, the inhibition at 0.1 µM in series [4] was at least 50%.

Regarding `CC[C@@H]1CN(Cc2cc(C(c3ccc4c(nnn4C)c3C)C(C)(C)C(=O)O)ccc2C)Cc2cc3ccccc3cc2O1` (stereo partly drawn) [Example 8-(b), 3-(1,4-dimethyl-1H-benzo[d][1,2,3]triazol-5-yl)-3-(3-(((R)-2-ethyl-2,3-dihydronaphtho[2,3-f][1,4]oxazepin-4(5H)-yl)methyl)-4-methylphenyl)-2,2-dimethylpropanoic Acid], the fold induction at 30 mg/kg in series [1] fell in the range of 3 to 6. In addition, in series [2], the Human metabolic rate entry was “A (metabolic rate<100 pmol/min/mg protein)”. Moreover, the EC (1.5-fold NQO1 activity) in series [3] was in the range of 0.0005 to 0.005 µM. Besides, the inhibition at 0.1 µM in series [4] is at least 50%.

As to `CC[C@@H]1CN(Cc2cc(C(c3ccc4c(nnn4C)c3C)C(C)(C)C(=O)O)ccc2C)Cc2cc3c(cc2O1)S(=O)(=O)CC3` (stereo partly drawn) [Example 74-(b), 3-(1,4-dimethyl-1H-benzo[d][1,2,3]triazol-5-yl)-3-(3-(((R)-2-ethyl-9,9-dioxide-2,3,7,8-tetrahydrothieno[2′,3′:4,5]benzo[1,2-f][1,4]oxazepin-4(5H)-yl)methyl)-4-methylphenyl)-2,2-dimethylpropanoic Acid], the fold induction at 20 mg/kg in series [1] was in the range of 3 to 6. The Human metabolic rate entry in series [2] is “B (100≤metabolic rate<150 pmol/min/mg protein)”. Further, the EC (1.5-fold NQO1 activity) in series [3] lay in the range of 0.0005 to 0.005 µM. Also, in series [4], the inhibition at 0.1 µM was at least 50%.

As for `CC[C@@H]1CN(Cc2cc(C(c3ccc4c(nnn4C)c3C)C(C)(C)C(=O)O)ccc2C)Cc2cc3cnn(C)c3cc2O1` (stereo partly drawn) [Example 50-(b), 3-(1,4-dimethyl-1H-benzo[d][1,2,3]triazol-5-yl)-3-(3-(((R)-8-ethyl-1-methyl-1,5,7,8-tetrahydro-6H-[1,4]oxazepino[6,7-f]indazol-6-yl)methyl)-4-methylphenyl)-2,2-dimethylpropanoic Acid], the fold induction at 30 mg/kg in series [1] is above 6. In addition, the Human metabolic rate result in series [2] is given as “C (150≤metabolic rate<200 pmol/min/mg protein)”. For the same compound, the EC (1.5-fold NQO1 activity) in series [3] lay within 0.0005 to 0.005 µM. For the same compound, in series [4], the inhibition at 0.1 µM was at least 50%.

As to `CC[C@@H]1CN(Cc2cc(C(c3ccc4c(nnn4C)c3C)C(C)(C)C(=O)O)ccc2C)Cc2nc3ccccc3cc2O1` (stereo partly drawn) [Example 10-(b), 3-(1,4-dimethyl-1H-benzo[d][1,2,3]triazol-5-yl)-3-(3-(((R)-2-ethyl-2,3-dihydro-[1,4]oxazepino[6,7-b]quinolin-4 (5H)-yl)methyl)-4-methylphenyl)-2,2-dimethylpropanoic Acid], the fold induction at 30 mg/kg in series [1] was above 6. For the same compound, in series [2], the Human metabolic rate result was “C (150≤metabolic rate<200 pmol/min/mg protein)”. Moreover, in series [3], the EC (1.5-fold NQO1 activity) fell in the range of 0.0005 to 0.005 µM. Further, the inhibition at 0.1 µM in series [4] was at least 50%.

By fold induction is commonly meant the signal under treatment as a multiple of the control signal. For orientation: inhibition means the relative decrease from the control value, in per cent.
